Laboratory results reported in PMC11649784, “Re-design and evaluation of diclofenac-based carborane-substituted prodrugs and their anti-cancer potential” (Scientific Reports, 2024).

How the values were obtained:
HCT116 cells = experiment: MTT viability assay, HCT116; format: cell-based, human; settings: 72 h, mean±SD; read-out: IC50 [μM] (n = 3) HCT116 MTT
Method: (§1) In a preliminary test, the stability of all compounds dissolved in the cell medium (c = 100 μM, T = [drawing 47] ) for 72 h was validated by HPLC (see Supporting Information). Cell lines were incubated with the respective compounds in a concentration range of 1.56–100 μM for 72 h, and cell viability was measured using 3-(4,5-dimethylthiazol-2-yl)-2,5-diphenyltetrazolium bromide (MTT) and crystal violet (CV) assays. […] As MTT tests gave inconsistent results, possibly due to interference of the compound with mitochondrial respiration, for the further evaluation only the CV results are considered[97],[98].
(§2) The biological study was performed on a murine colon adenocarcinoma cell line (MC38), two human colorectal carcinoma cell lines (HCT116 and HT29), and a human fetal lung fibroblast cell line (MRC-5). All cell lines are commercially available and were obtained from the American Type Culture Collection (ATCC). The human cell lines were kept in HEPES-buffered RPMI-1640 medium supplemented with 10 [drawing 141] heat-inactivated FCS, 2 mM L-glutamine, 0.01 [drawing 142] sodium pyruvate, penicillin (100 units mL^−1), and, streptomycin ( [drawing 143] mL^-1). The MC38 cell line was maintained in DMEM medium additionally supplemented with 1 [drawing 144] non-essential amino acids. Cells were grown at [drawing 145] in a humidified atmosphere with 5 [drawing 146] [drawing 147] . Peritoneal exudate cells (PECs) were isolated from healthy C57BL/6 mice (males, n = 3, 3 months old, weight 22–25 g) by performing an ice-cold PBS peritoneal lavage. Mice were sacrificed by cervical dislocation. Cells were cultivated for 4 h when nonadherent population was removed by washing in PBS, and additionally cultivated overnight in HEPES-buffered RPMI-1640 medium supplemented with 5 [drawing 148] heat-inactivated FCS before treatment with experimental drugs. Animal handling and protocol for isolation of PECs were performed according to European Union rules, and the ARRIVE guidelines 2.0.
For the viability tests, MC38, HCT116, and HT29 cells were seeded in 96-well plates at a density of 2 [drawing 149] 103, 5 [drawing 150] 103, and 6 [drawing 151] 10^3 cells/well, respectively. To determine whether the drug affected the viability of healthy, non-malignant cells, MRC-5 and PECs were seeded in 96-well plates at a density of 8 [drawing 152] 103 and 2 [drawing 153] 10^5 cells/well, respectively. For the flow cytometric analyses, MC38 cells were seeded in 6-well plates at 5 [drawing 154] 10^4 cells/well. For morphological assessment of nuclei and the detection of autophagy, MC38 cells were seeded in 2-well chamber slides at 1.5 [drawing 155] 10^4 cells/well.
After 72 h, cell viability was determined using MTT and CV tests. First, the supernatant from the wells was discarded and the cells were incubated with an MTT solution (0.5 mg mL^−1). After half an hour, the purple formazan crystals formed were dissolved in DMSO. For CV staining of the cells, the cells were fixed with 4 [drawing 157] PFA for 10 min and then stained with a 0.02 [drawing 158] CV solution for 15 min, all at room temperature (RT). The cells were then washed with tap water, air-dried and the dye was dissolved in 33 [drawing 159] acetic acid. For both viability tests, the absorbance of the developed colors was measured using an automated microplate reader at 570 nm with a reference wavelength of 670 nm. The results were expressed as a percentage of the control values of the untreated cells, which were arbitrarily set at 100 [drawing 160] . IC50 values, defined as 50 [drawing 161] inhibitory concentration, were calculated using a four-parameter logistic function and presented as mean±SD. All biological experiments were performed in triplicates. To evaluate the nature of the detected autophagy, a combined treatment with compound 3 and the autophagy inhibitors chloroquine (Chlq) and 3-methyladenine (3-MA) was carried out. […] After 72 h, cell viability was determined by CV assay.

[1] = tested on: human fetal lung fibroblast cell line MRC-5; experiment: Viability of non-malignant MRC-5 cells; format: cell-based; settings: column head not given
Method: as §2, with “Animal handling and protocol for isolation of PECs were performed according to European Union rules, and the ARRIVE guidelines 2.0.” left out
After 72 h, cell viability was determined using MTT and CV tests. […] For both viability tests, the absorbance of the developed colors was measured using an automated microplate reader at 570 nm with a reference wavelength of 670 nm. The results were expressed as a percentage of the control values of the untreated cells, which were arbitrarily set at 100 [drawing 160] . IC50 values, defined as 50 [drawing 161] inhibitory concentration, were calculated using a four-parameter logistic function and presented as mean±SD. […] To evaluate the nature of the detected autophagy, a combined treatment with compound 3 and the autophagy inhibitors chloroquine (Chlq) and 3-methyladenine (3-MA) was carried out. […] After 72 h, cell viability was determined by CV assay.

MC38 cells = experiment: Acridine orange staining for autophagosomes; format: cell-based, murine; settings: IC50 concentration, 72 h
Method: For morphological assessment of cell nuclei, MC38 cells were seeded overnight in 2-well chamber slides and then treated with the IC50 concentration of compound 3 for 72 h. At the end of the incubation period, cells were fixed with 4 [drawing 168] PFA for 15 min at RT. Staining of cells was performed with PI solution (0.1 [drawing 169] Triton X-100, 0.5 M EDTA pH 8, 50 μg mL^− 1 RNase, and 50 [drawing 170] mL^− 1 PI - final concentrations in PBS) for 1–2 min at RT. After washing in PBS, the cells were mounted in a fluorescence microscopy medium (Fluoromount- [drawing 171] , eBioscience, San Diego, CA, USA). The slides were analyzed with a ZeissAxio Observer Z1 inverted fluorescence microscope (Carl Zeiss AG, Oberkochen, Germany) at 400 [drawing 172] magnification. For the detection of autophagosomes, AO staining of cells seeded in 2-well chamber slides was applied. […] The dye was then removed, the cells were rinsed with PBS and immediately evaluated via fluorescence microscopy at 400 [drawing 175] magnification using the Leica DM4 B microscope equipped with a DFC7000 T camera (Leica Microsystems CMS GmbH, Wetzlar, Germany).

[2] = Stability in cell culture medium by HPLC; format: physicochemical
Method: as §1
Selg et al. Supp. Information
2 Stability Tests for Compound 3
In a 1 mL Eppendorf vial, 10 μL (0.05 μmol) of a freshly prepared 5 mM stock solution of compound 3 in DMSO was mixed with 490 μL of DMEM (Dulbecco's Modified Eagle Medium) containing 10% of fetal bovine serum and stored in an incubation oven at 40 °C for a total 72 hours. After 0, 24 and 72 hours, a 50 μL sample was collected from the mixture and diluted with 250 μL acetonitrile in a 500 μL Eppendorf vial to precipitate the proteins. The mixture was vortexed for 30 s before it was centrifuged for 20 min at 15,000 min-1 and 4 °C. […]
Figure S 2. […] Samples measured at 0, 24 and 72 hours (top to bottom) including the mass spectrum (right) and integration data (bottom). […]

IC50 (HCT116 cells): 6.9 ± 1.5 µM
stability in cell medium by HPLC ([2]; 100 μM, 72 h, compound 3: DMEM with 10% fetal bovine serum, 40 °C, 0, 24 and 72 hours): no signs of decomposition
purity (relative area of integrals) after 72 hours in culture medium ([2]; DMEM with 10% fetal bovine serum, 40 °C, 72 hours): above 95%
Substance: 1-[2-(7,8-dicarba-nido-undecaborate)]- [drawing 126] H-indolium-2-amine [compound 3]
Selectivity index (IC50 value of primary vs. cancer cells), MRC-5, second cancer cell line column ([1]; presumably HCT116): 1.5
Selectivity index (IC50 value of primary vs. cancer cells), MRC-5, third cancer cell line column ([1]; presumably HT29): 0.98
Selectivity index (IC50 value of primary vs. cancer cells), MRC-5, first cancer cell line column ([1]; presumably MC38): 1.81
autophagosomes in the cytoplasm (acridine orange) (MC38 cells): intensified presence of autophagosomes
